From US9034866B2 (Genentech, Inc., priority 2012, dated 2015)
“And” between values parts separate entries of the source, which are not always exact repeats. Equal values may be shown once. Read-outs that look alike come from different tables or passages of the source.

Molecular target: nuclear factor-kappa B (NF-kB)-inducing kinase (NIK) (Homo sapiens (Human), UniProt Q99558)
Assay: NIK Enzyme Inhibition Assay (Transcreener ADP fluorescence polarization)
Assay type: biochemical
Details: read-out: NIK ADP-FP (Ki uM)
Method: NIK Enzyme Inhibition Assay: The ability of the nuclear factor-kappa B (NF-kB)-inducing kinase (NIK) to catalyze the hydrolysis of adenosine-5′-triphosphate (ATP) was monitored using the Transcreener ADP (adenosine-5′-diphosphate) assay (BellBrook Labs). Purified NIK (0.2-1 nM) derived from a baculovirus-infected insect cell expression system was incubated with test compounds for 1-3.5 hours in 50 mM 2-[4-(2-hydroxyethyl)piperazin-1-yl]ethanesulfonic acid buffer (pH 7.2) containing 10 mM MgCl2, 2 mM dithiothreitol, 10 uM ATP, 0.01% Triton X-100, 0.1% gamma-globulins from bovine blood, 1% dimethylsulfoxide (DMSO), 12 ug/mL ADP antibody and 4 nM ADP-AlexaFluor® 633 tracer. Reactions were quenched by the addition of 20 mM 2,2′,2″,2′″-(ethane-1,2-diyldinitrilo)tetraacetic acid and 0.01% Brij 35. The tracer bound to the antibody was displaced by the ADP generated during the NIK reaction, which causes a decrease in fluorescence polarization that was measured by laser excitation at 633 nm with a Fluorescence Correlation Spectroscopy Plus reader (Evotec AG).

[1] = purified NIK 0.2-1 nM, 10 uM ATP, Morrison's quadratic equation

Sequence of nuclear factor-kappa B (NF-kB)-inducing kinase (NIK) (Q99558 whole entry): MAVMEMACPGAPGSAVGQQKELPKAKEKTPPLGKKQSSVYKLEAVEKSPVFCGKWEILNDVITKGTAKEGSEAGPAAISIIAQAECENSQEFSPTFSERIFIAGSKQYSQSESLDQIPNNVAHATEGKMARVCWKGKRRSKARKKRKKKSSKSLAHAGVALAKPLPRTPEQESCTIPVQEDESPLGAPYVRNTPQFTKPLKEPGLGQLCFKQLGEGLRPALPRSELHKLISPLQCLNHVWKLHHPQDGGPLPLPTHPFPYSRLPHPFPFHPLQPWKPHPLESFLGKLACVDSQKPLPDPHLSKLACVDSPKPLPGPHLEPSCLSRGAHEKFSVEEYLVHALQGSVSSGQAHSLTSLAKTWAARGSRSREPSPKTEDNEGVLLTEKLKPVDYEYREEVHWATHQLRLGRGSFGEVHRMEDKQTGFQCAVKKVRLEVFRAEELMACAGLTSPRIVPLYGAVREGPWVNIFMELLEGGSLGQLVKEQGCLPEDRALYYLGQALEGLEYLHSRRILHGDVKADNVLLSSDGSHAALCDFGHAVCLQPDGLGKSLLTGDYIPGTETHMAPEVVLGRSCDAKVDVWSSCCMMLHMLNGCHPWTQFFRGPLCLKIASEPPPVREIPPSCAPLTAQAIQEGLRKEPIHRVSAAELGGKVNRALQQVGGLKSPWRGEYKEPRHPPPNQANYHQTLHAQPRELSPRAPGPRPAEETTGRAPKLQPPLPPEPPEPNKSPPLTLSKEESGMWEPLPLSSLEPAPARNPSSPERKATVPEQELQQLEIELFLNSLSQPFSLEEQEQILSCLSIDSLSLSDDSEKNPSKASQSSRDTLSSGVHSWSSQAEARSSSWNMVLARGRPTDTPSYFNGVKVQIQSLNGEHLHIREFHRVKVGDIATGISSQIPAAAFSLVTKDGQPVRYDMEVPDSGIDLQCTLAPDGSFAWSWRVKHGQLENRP

| SMILES | Ki [1] | Ki |
| --- | --- | --- |
| CC(O)(C#Cc1cc2c(cc1F)OCCc1sc(C(N)=O)nc1-2)c1ncn[nH]1 (centres unmarked) [Example 182, 8-fluoro-9-[3-hydroxy-3-(1H-1,2,4-tria-zol-5-yl)but-1-ynyl]-4,5-dihydro-[I]ben-zoxepino[5,4-d]thiazole-2-carboxamide] | 0.0021 µM |  |
| CN1CC[C@@](O)(C#Cc2ccc3c(c2)-n2nc(C(N)=O)cc2C2(CCC2)CO3)C1=O [Example 717, (R)-9-((3-hydroxy-1-methyl-2-oxopyrro-lidin-3-yl)ethynyl)-5H-spiro[ben-zo[b]pyrazolo[1,5-d][1,4]oxazepine-4,1′-cyclobutane]-2-carboxamide] | 0.0005 µM |  |
| CC(C)(O)C#Cc1ccc2c(c1)-c1nc(C(N)=O)c(Cn3ncc4ccccc43)n1CCO2 | 0.14 µM |  |
| CC(O)(C#Cc1cc2c(cc1F)OCCn1c-2nc(C(N)=O)c1C1CC1)c1ccccn1 (centres unmarked) | 0.037 µM |  |
| CC(C)(O)C#Cc1cc2c(cc1F)OCCn1cc(C(N)=O)nc1-2 [Example 5, 8-fluoro-9-(3-hydroxy-3-methyl-but-1-ynyl)-4,5-dihydro-6-oxa-1,3a-diaza-ben-zo[e]azulene-2-carboxylic acid amide] | 0.034 µM |  |
| CC(C)(O)C#Cc1cc2c(cc1F)OCCn1c-2nc(C(N)=O)c1C(=O)NC1COC1 (racemic) [Example 59] | 0.006 µM |  |
| CN1CCC(O)(C#Cc2ccc3c(c2)-c2nc(C(N)=O)cn2CCO3)C1 (centres unmarked) [Example 23, 9-(3-hydroxy-1-methyl-pyrrolidin-3-yl-ethynyl)-4,5-dihydro-6-oxa-1,3a-diaza-benzo[e]azulene-2-carboxylic acid amide] | > 5 µM |  |
| CC(O)(C#Cc1cc2c(cc1F)C1CC(C1)n1cc(C(N)=O)nc1-2)CO (centres unmarked) | 0.014 µM |  |
| Cc1cc([C@](C)(O)C#Cc2ccc3c(c2)-n2nc(C(N)=O)cc2C2(CCC2)CO3)no1 [Example 716, (R)-9-(3-hydroxy-3-(5-methylisoxazol-3-yl)but-1-yn-1-yl)-5H-spiro[benzo[b]py-razolo[1,5-d][1,4]oxazepine-4,1′-cyclo-butane]-2-carboxamide] | 0.008 µM |  |
| CC(C)(O)C#Cc1cc2c(cc1F)OCCn1c-2nc(C(N)=O)c1-c1cc[nH]n1 [Example 35, 8-fluoro-9-(3-hydroxy-3-methyl-but-1-ynyl)-3-(1H-pyrazol-3-yl)-4,5-dihydro-6-oxa-1,3a-diaza-benzo[e]azulene-2-car-boxylic acid amide] | 0.003 µM |  |
| CNC(=O)c1c(C(N)=O)nn2c1CCOc1ccc(C#C[C@@](C)(O)c3cc(C)on3)cc1-2 [Example 548] |  | 0.0014 µM |
| CC(C)(O)C#Cc1cc2c(cc1F)OCCn1c-2nc(C(N)=O)c1C(=O)NC1(C)COC1 [Example 60] | 0.025 µM |  |
| CC(O)(C#Cc1cc2c(cc1F)C1CC(C1)n1cc(C(N)=O)nc1-2)c1ccccn1 (racemic) [Example 160] | 0.0068 µM |  |
| CN1CC[C@@](O)(C#Cc2ccc3c(c2)-n2nc(C(N)=O)c(C(F)F)c2CCO3)C1=O [Example 718, (R)-3-(difluoromethyl)-9-((3-hydroxy-1-methyl-2-oxopyrrolidin-3-yl)ethynyl)-4,5-dihydrobenzo[b]pyrazolo[1,5-d][1,4]oxazepine-2-carboxamide] | 0.0003 µM |  |
| Cn1cnc(C(C)(O)C#Cc2cc3c(cc2F)OCCn2cc(C(N)=O)nc2-3)c1 (centres unmarked) | > 5 µM |  |
| CC(C)(C#Cc1cc2c(cc1F)OCCn1cc(C(N)=O)nc1-2)CO (racemic) | > 5 µM |  |
| CN1CC[C@@](O)(C#Cc2cc3c(cc2F)OCC(F)(F)c2sc(C(N)=O)nc2-3)C1=O [Example 641, 4,4,8-trifluoro-9-[2-[(3R)-3-hydroxy-1-methyl-2-oxo-pyrrolidin-3-yl]ethynyl]-5H-[1]benzoxepino[5,4-d]thiazole-2-carboxamide] | 0.0002 µM |  |
| COCCNCc1c(C(N)=O)nc2n1C1CC(C1)c1cc(F)c(C#CC(C)(C)O)cc1-2 (racemic) | 0.056 µM |  |
| Cc1ncccc1C(C)(O)C#Cc1cc2c(cc1F)OCCn1cc(C(N)=O)nc1-2 (centres unmarked) [Example 19, 8-fluoro-9-[3-hydroxy-3-(2-methyl-pyri-din-3-yl)-bul-1-ynyl]-4,5-dihydro-6-oxa-1,3a-diaza-benzo[e]azulene-2-carboxy-lic acid amide] | > 5 µM |  |
| CN1CCCC(O)(C#Cc2ccc3c(c2)-c2nc(C(N)=O)cn2CCO3)C1=O (centres unmarked) [Example 158] | 0.0059 µM |  |
| CC(C)(O)C#Cc1ccc2c(c1)-c1nc(C(N)=O)cn1C1CC2C1 [Example 179, 10-(3-hydroxy-3-methyl-but-1-ynyl)-5,6,7,12-tetrahydro-5,7-methanobenzo[c]imi-dazo[1,2-a]azepine-2-carboxamide] | 0.022 µM |  |
| CC(O)(C#Cc1cc2c(cc1F)OCCn1cc(C(N)=O)nc1-2)C(N)=O (centres unmarked) [Example 52, 9-(3-carbamoyl-3-hydroxy-but-1-ynyl)-8-fluoro-4,5-dihydro-6-oxa-1,3a-diaza-benzo[e]azulene-2-carboxylic acid amide] | 3.6 µM |  |
| CC(C)(O)C#Cc1cc2c(cc1F)C1CC(C1)c1sc(C(N)=O)cc1-2 (racemic) | 0.11 µM |  |
| CC(C)(O)C#Cc1cc2c(cc1F)OCCn1c-2nc(C(N)=O)c1C(=O)NC1CCOC1 (centres unmarked) | 0.037 µM |  |
| CNC(=O)c1c(C(N)=O)nc2n1C1CC(C1)c1cc(F)c(C#C[C@@](C)(O)c3noc(C)n3)cc1-2 |  | 0.051 µM |

| SMILES | Ki [1] | Ki |
| --- | --- | --- |
| Cc1nc([C@](C)(O)C#Cc2ccc3c(c2)-n2nc(C(N)=O)cc2CCO3)no1 [Example 673, (R)-9-(3-hydroxy-3-(5-methyl-1,2,4-oxadiazol-3-yl)but-1-yn-1-yl)-4,5-dihydro-benzo[b]pyrazolo[1,5-d][1,4]oxazepine-2-carboxamide] | 0.045 µM |  |
| NC(=O)c1cn2c(n1)-c1cc(C#CC3(O)CCCC3)ccc1C1CC2C1 [Example 37, 9-[2-(1-hydroxycyclopentyl)ethynyl]-2,5-diazatetra-cyclo[11.1.1.0^2,6.0^7,12]pen-tadeca-3,5,7,9,11-pentaene-4-carboxamide] | 0.003 µM |  |
| CNC(=O)c1c(C(N)=O)nc2n1CCOc1cc(F)c(C#CC(C)(O)CO)cc1-2 (racemic) | 0.002 µM |  |
| CC(C)(O)C#Cc1ccc2c(c1)-c1nc(C(N)=O)sc1C(O)CO2 (centres unmarked) [Example 12, 4-hydroxy-9-(3-hydroxy-3-methyl-but-1-ynyl)-4,5-dihydro-6-oxa-3-thia-1-aza-benzo[e]azulene-2-carboxylic acid amide] | 0.093 µM |  |
| CC(C)(O)C#Cc1cc2c(cc1F)OCCn1c-2nc(C(N)=O)c1Cc1ccccc1 [Example 24, 3-benzyl-8-fluoro-9-(3-hydroxy-3-meth-yl-but-1-ynyl)-4,5-dihydro-6-oxa-1,3a-diaza-benzo[e]azulene-2-carboxylic acid amide] | 0.011 µM |  |
| Cn1nccc1C(O)c1c(C(N)=O)nc2n1C1CC(C1)c1cc(F)c(C#CC(C)(C)O)cc1-2 (racemic) | 0.0072 µM |  |
| COCC(C)(O)C#Cc1cc2c(cc1F)C1CC(C1)n1c-2nc(C(N)=O)c1C1CC1 (racemic) | 0.014 µM |  |
| CC(O)(C#Cc1cc2c(cc1F)OCCn1cc(C(N)=O)nc1-2)c1c[nH]cn1 (centres unmarked) | 0.001 µM |  |
| Cc1cc([C@](C)(O)C#Cc2ccc3c(n2)-n2cc(C(N)=O)nc2CCO3)no1 (racemic) | 0.21 µM |  |
| CC(C)(O)C#Cc1ccc2c(c1)-c1nc(C(N)=O)sc1C(CC(N)=O)CO2 (racemic) [Example 49] | 0.023 µM |  |
| Cc1nnc(C(C)(O)C#Cc2ccc3c(c2)-c2nc(C(N)=O)cn2CCO3)o1 (centres unmarked) | 0.028 µM |  |
| CC(C)(O)C#Cc1cc2c(cc1F)OCCn1c-2nc(C(N)=O)c1C(=O)NCCN1CCCC1 (racemic) [Example 67] | 0.048 µM |  |
| Cc1nc(C(C)(O)C#Cc2cc3c(cc2F)OCCn2cc(C(N)=O)nc2-3)c[nH]1 (racemic) | 2.5 µM |  |
| CN1CCN(Cc2c(C(N)=O)nc3n2CCOc2ccc(C#CC(C)(C)O)cc2-3)CC1 | 0.95 µM |  |
| CN1CCCC(O)(C#Cc2cc3c(cc2F)OCCc2sc(C(N)=O)nc2-3)C1=O (centres unmarked) | 0.002 µM |  |
| CC(C)(O)C#Cc1cc2c(cc1F)OCCn1c-2nc(C(N)=O)c1C1CC1 [Example 36, 3-cyclopropyl-8-fluoro-9-(3-hydroxy-3-methyl-but-1-ynyl)-4,5-dihydro-6-oxa-1,3a-diaza-benzo[e]azulene-2-carboxylic acid amide] | 0.037 µM |  |
| CN1CC[C@@](O)(C#Cc2ccc3c(c2)-n2nc(C(N)=O)c(Cl)c2C(F)(F)CO3)C1=O [Example 719, (R)-3-chloro-4,4-difluoro-9-((3-hydroxy-1-methyl-2-oxopyrrolidin-3-yl)ethynyl)-4,5-dihydrobenzo[b]pyrazolo[1,5-d][1,4]oxazepine-2-carboxamide] | 0.0004 µM |  |
| Cn1cncc1C(O)c1c(C(N)=O)nc2n1C1CC(C1)c1cc(F)c(C#CC(C)(C)O)cc1-2 (centres unmarked) | 0.011 µM |  |
| Cn1cncc1C(O)c1c(C(N)=O)nc2n1C1CC(C1)c1cc(F)c(C#CC3(O)CCCC3)cc1-2 (centres unmarked) | 0.014 µM |  |
| CNC(=O)C(C)(O)C#Cc1cc2c(cc1F)OCCn1cc(C(N)=O)nc1-2 (centres unmarked) | 1.4 µM |  |
| CC(C)(O)C#Cc1ccc2c(c1)-c1nc(C(N)=O)c(CN3CCC(=O)C3)n1CCO2 [Example 711] | 1.8 µM and 1.1 µM |  |
| COCCN(C)Cc1c(C(N)=O)nc2n1C1CC(C1)c1cc(F)c(C#CC(C)(C)O)cc1-2 (racemic) [Example 239] | 0.23 µM |  |
| NC(=O)c1cn2c(n1)-c1cc(C#CC3(O)CCNC3)ccc1OCC2 (centres unmarked) [Example 29, 9-(3-hydroxy-pyrrolidin-3-ylethynyl)-4,5-dihydro-6-oxa-1,3a-diaza-benzo[e]azu-lene-2-carboxylic acid amide] | > 5 µM |  |
| Cn1nccc1Cc1c(C(N)=O)nc2n1C1CC(C1)c1cc(F)c(C#CC(C)(C)O)cc1-2 | 0.0024 µM |  |
| CC(C)(O)C#Cc1ccc2c(c1)-c1nc(C(N)=O)c(CN3CC[C@@H](C#N)C3)n1CCO2 | 1.8 µM and 1.1 µM |  |
